These results are taken from patent publication US20220220100A1 (SOLUTIA CANADA INC., priority 2019, published 2022).

Type in all cases: physicochemical
The nature of data set [1]: Oxidation potential of ring-closed and ring-open isomers. The following applies: no unit printed in table (V relative to Ag/AgCl). An excerpt:
In various embodiments, at a PSS, some of the chromophore will be in the ring-closed isomer, with a small, but non-zero portion of ring-open isomer. The oxidation potential of a ring-open isomer may be more anodic than the oxidation potential of a ring-closed isomer. Exposure to a potential that is too far beyond what is necessary to oxidize the ring-closed isomer may result in oxidation of the ring-open isomer, which may be irreversible and result in electrochemically-induced degradation of the chromophore.
Thus, in various embodiments, an anodic chromophore may have an oxidation potential of from about 0.4 V to 1.2 V for the ring-closed isomer and about 1.0 V to 2.5 V for the ring-open isomer relative to an Ag/AgCl reference electrode. In various embodiments, the oxidation potential for the ring-open isomer is about 250 mV more anodic than the oxidation potential for the ring-closed isomer. For example, the oxidation potential may be about 260 mV, about 280 mV, about 300 mV, about 320 mV, about 340 mV, about 360 mV, about 380 mV, about 400 mV, about 420 mV, about 440 mV, or about 460 mV more anodic than the oxidation potential for the ring-closed isomer.

Data set [2] can be described thus: UV/Vis absorbance at 400 nm and Yellowness Index of the ring-open isomer. The following applies: for Abs @ 400 nm, RO (Absorption of ring-open isomer at 400 nm): 2×10^−5 M solution, 1 cm pathlength cuvette. An excerpt: In addition to the above, chromophores should have acceptable colour for both the ring-opened and ring-closed isomers. For example, the ring-open isomer of the chromophore should have a Yellowness Index (YI) of less than about 10 and an absorbance at 400 nm, as measured for a 2×10^−5 M solution in a 1 cm pathlength cuvette. For the ring-closed isomer of the chromophore, the lambda max should be between about 475 nm and 700 nm, tunable according to desired colour and number of chromophores in the composition.
UV/Vis spectra were obtained using an OceanOptics™ Spectrophotometer. A 2×10^−5 M solution of compound in solvent was prepared, and photofaded using visible light until absorption in the visible region of the spectrum stabilized. The sample was then irradiated with simulated sunlight (QSUN SS-150 Solar Simulator with xenon arc lamp) until the absorption spectrum stabilized. To obtain PSS in the presence of a UV blocking film, a second sample was prepared and irradiated as described, with a UV blocking film inserted in the light path when irradiating.

A short description of data set [3]: Photostability: xenon arc weathering of chromophore solutions, LCMS analysis. The following applies: for Ketone (%) / Minus-2HF (%) / Minus-HF (%) / Sulfone (%) / Chromophore Remaining (%): xenon arc, 82° C. bp; for Ketone (%) / Minus-2HF (%) / Minus-HF (%) / Sulfone (%): linearly interpolated to 0.5 MJ/m2 @ 340 nm; for Chromophore Remaining (%): linearly interpolated to 0.5 MJ/m2 @ 340 nm of exposure energy; for Photostability (in words): weathering experiments. An excerpt: Photostability (resistance to light-induced degradation) may be measured by the amount of time required for the compound, or a material comprising the compound, to degrade to a certain point under light exposure. The light exposure may be constant, or cyclic. The light transmittance or absorbance of the compound, or material comprising the compound, may be determined at both a light state and dark state prior to testing, to determine a contrast ratio. During testing, the contrast ratio may be monitored (periodically or continually), the compound or material may be determined to have failed when the contrast ratio falls outside, or below, a selected range, or when the contrast ratio decreases to a percentage of the original contrast ratio. Photostability may also be expressed with reference to a light source or with reference to a type of light.
Chromophore solutions in Rhodiasolv IRIS were prepared at 1 to 10 wt % loading. Solutions were prepared in a glovebox by charging the chromophore and Rhodiasolv IRIS to a trace-clean vial, and the solution was stirred on a hotplate at 90° C. for 2-24 hours. After cooling, the chromophore solution was injected into glass weathering cells and the fill and vent ports were sealed with a thin disc of Kalrez (FFKM Perfluorinated Elastomer) and secured with a clamp and set-screw. The weathering cells were filled and sealed inside the glove box.
Measurement of Photostability
A. Fabrication of cuvettes. Two holes of 0.8 mm diameter were drilled at opposite ends in a 75×50 mm piece of float glass using a diamond drill bit in a rotary tool. The drilled glass and a matching piece of undrilled glass were then cleaned using hot soapy water, rinsed with deionized water and acetone and then dried with compressed air. A 5 mm wide frame was cut from a sheet of 50 μm thickness EVAL EF-F using a laser engraver. The EVAL frame was placed around the perimeter of one sheet of glass and sandwiched by the second sheet of glass. The glass-EVAL-glass sandwich was secured with tape and heated under vacuum (10 mmHg) for 30 minutes at 170° C. in a vacuum bag. After cooling, a third piece of float glass was PVB laminated to the non-drilled side of the sealed glass cells using Trosifol UV Extra Protect B150 PVB (400 nm UV cut-off).
B. Xenon arc weathering protocol. Devices were exposed to simulated weathering conditions inside a Xe-3-HS xenon arc chamber, manufactured by Q-labs Inc. The samples were weathered according to the following table. The devices were exposed to these conditions continuously, with no dark or spray cycles included.
C. Analysis of weathered chromophore solutions by LCMS. The set-screws, metal clamps and Kalrez plugs were removed from the cuvette to expose the fill port. A 5 mL plastic syringe (NORM-JECT®) equipped with a tip (Precision Tips, 0.010″ RED) was inserted into one fill port and the chromophore solution was withdrawn from the cuvette. The chromophore solution was then injected into a 2 mL amber vial (part number 5182-0716, Agilent Technology) prefilled with 1.5 mL LC-MS grade acetonitrile (HiPerSolbe CHROMANORM Acetonitrile, VWR BDH Chemicals). An aliquot of the acetonitrile solution (2 μL) was injected into the LC-MS system (Agilent Infinity 1290 LC-MS system with diode array detector) through an autosampler mechanism. Species in the injected sample were separated through a reverse phase column (Zorbax SB-C18, 2.1×50 mm, 1.8 μm, operated at 40° C.), using a mixture of acetonitrile (mixed with 1% formic acid v/v ratio), methanol (HiPerSolbe CHROMANORM Methanol, VWR BDH Chemicals) and water (HiPerSolbe CHROMANORM Water, VWR BDH Chemicals) as mobile phase.

Setting [4] is: 3 wt %, interpolated to 0.5 MJ/m^2 of energy exposure at 340 nm.
[5] abbreviates: 1 wt %, interpolated to 0.5 MJ/m^2 of energy exposure at 340 nm.
[6] abbreviates: 10 wt %, interpolated to 0.5 MJ/m^2 of energy exposure at 340 nm.

Take `COc1ccc2c(C3=C(c4cc(-c5ccc(C(C)(C)C)s5)sc4-c4ccc(C(C)(C)C)s4)C(F)(F)C(F)(F)C3(F)F)c(-c3ccc(C(C)(C)C)cc3)oc2c1`: in data set [1], the “RC [O] (oxidation potential of ring-closed isomer)” value (“RC [O]” for short) is reported as 1 and the “RO [O] (oxidation potential of ring-open isomer)” value (“RO [O]” below) was 1.38. In data set [2], the “YI (Yellowness Index)” value came out at 3.32 and the “Abs @ 400 nm, RO (Absorption of ring-open isomer at 400 nm)” value (“Abs @ 400 nm, RO” for short) stood at 0.0809. In data set [3] (3 wt % in Rhodiasolv IRIS), the “Ketone (%)” value amounted to 0.0%, the “Minus-2HF (%)” value is reported as 1.9%, the “Minus-HF (%)” value was found to be 6.9% and the “Sulfone (%)” value came out at 0.0%. In data set [3] (3 wt % in Rhodiasolv IRIS), the “Chromophore Remaining (%)” value is on record as 86.9%. In addition, the “Ratio of chromophore remaining relative to S340” value in data set [3] (setting [4]) is 0.95. For the same molecule, the “Photostability (in words)” value in data set [3] is on record as “more rapid degradation compared to S340”.
As for `COc1cc2oc(-c3ccc(C(C)(C)C)cc3)c(C3=C(c4cc(-c5cc6c(s5)C(C)(C)CCC6(C)C)sc4-c4cc5c(s4)C(C)(C)CCC5(C)C)C(F)(F)C(F)(F)C3(F)F)c2cc1OC`, in data set [1], the “RC [O]” value stood at 0.91 and the “RO [O]” value is 1.29. In data set [2], the “YI (Yellowness Index)” value was found to be 8.12 and the “Abs @ 400 nm, RO” value was found to be 0.131. In addition, in data set [3] (1 wt % in Rhodiasolv IRIS), the “Ketone (%)” value amounted to 3.3%, the “Minus-2HF (%)” value is 0.0%, the “Minus-HF (%)” value is 1.3% and the “Sulfone (%)” value was determined as 3.1%. Besides, the “Chromophore Remaining (%)” value in data set [3] (1 wt % in Rhodiasolv IRIS) amounted to 92.3%. For the same molecule, in data set [3] (setting [5]), the “Ratio of chromophore remaining relative to S340” value turned out to be 1.01 and the “Sum of degradation product percentages relative to the sum of degradation product percentages for S340” value worked out at 0.87. The “Photostability (in words)” value in data set [3] was “high photostability”.
With `COCCCOc1cc2oc(-c3ccc(C(C)(C)C)cc3)c(C3=C(c4cc(-c5cc(C(C)(C)C)cs5)sc4-c4cc(C(C)(C)C)cs4)C(F)(F)C(F)(F)C3(F)F)c2cc1OCCCOC`, in data set [1], the “RC [O]” value amounted to 0.95 and the “RO [O]” value worked out at 1.39. In data set [2], the “YI (Yellowness Index)” value came out at 4.29 and the “Abs @ 400 nm, RO” value is given as 0.103. In addition, in data set [3], the “Formation of the Minus-HF degradation product (in words)” value is listed as “prevents the Minus-HF product” and the “Photostability (in words)” value is “high photostability”. Further, in data set [3] (10 wt % in Rhodiasolv IRIS), the “Ketone (%)” value was determined as 0.0%, the “Minus-2HF (%)” value was 0.0%, the “Minus-HF (%)” value was found to be 0.0% and the “Sulfone (%)” value was 0.1%. The “Chromophore Remaining (%)” value in data set [3] (10 wt % in Rhodiasolv IRIS) was determined as 98.6%. In addition, the “Ratio of chromophore remaining relative to S340” value in data set [3] (setting [6]) came to 1.08.
`CC(C)(C)c1ccc(-c2oc3cc(OCCN4C(=O)CCC4=O)c(OCCN4C(=O)CCC4=O)cc3c2C2=C(c3cc(-c4cc(C(C)(C)C)cs4)sc3-c3cc(C(C)(C)C)cs3)C(F)(F)C(F)(F)C2(F)F)cc1`: in data set [1], the “RC [O]” value came out at 1.05 and the “RO [O]” value amounted to 1.42. Moreover, in data set [2], the “YI (Yellowness Index)” value was determined as 4.72 and the “Abs @ 400 nm, RO” value is 0.136. Further, in data set [3] (10 wt % in Rhodiasolv IRIS), the “Ketone (%)” value stood at 0.0%, the “Minus-2HF (%)” value came out at 0.0%, the “Minus-HF (%)” value is on record as 0.0% and the “Sulfone (%)” value turned out to be 0.0%. Further, the “Chromophore Remaining (%)” value in data set [3] (10 wt % in Rhodiasolv IRIS) came to 95.3%. The “Ratio of chromophore remaining relative to S340” value in data set [3] (setting [6]) was 1.05. In addition, the “Photostability (in words)” value in data set [3] is given as “high photostability”.
Regarding `COc1cc2oc(-c3ccc(C(C)(C)C)cc3)c(C3=C(c4cc(-c5ccc(C(C)(C)C)s5)sc4-c4ccc(C(C)(C)C)s4)C(F)(F)C(F)(F)C3(F)F)c2cc1OC` [Chromophore S340, 2-(4-(tert-butyl)phenyl)-3-(2-(5,5″-di-tert-butyl-[2,2′:5′,2″-terthiophen]-3′-yl)-3,3,4,4,5,5-hexafluorocyclopent-1-en-1-yl)-5,6-dimethoxybenzofuran], in data set [1], the “RC [O]” value was found to be 0.95 and the “RO [O]” value was 1.35. Also, in data set [2], the “YI (Yellowness Index)” value is on record as 5.61 and the “Abs @ 400 nm, RO” value came to 0.128. Besides, in data set [3] (3 wt % in Rhodiasolv IRIS), the “Ketone (%)” value is reported as 0.0%, the “Minus-2HF (%)” value is on record as 1.0%, the “Minus-HF (%)” value stood at 3.5% and the “Sulfone (%)” value is recorded as 0.0%. In addition, the “Chromophore Remaining (%)” value in data set [3] (3 wt % in Rhodiasolv IRIS) is recorded as 91.1%. Further, in data set [3] (setting [4]), the “Ratio of chromophore remaining relative to S340” value worked out at 1.00. Besides, the “Photostability (in words)” value in data set [3] is given as “acceptable photostability”.
In the case of `CC(C)(C)c1ccc(-c2oc3ccccc3c2C2=C(c3cc(-c4ccc(C(C)(C)C)s4)sc3-c3ccc(C(C)(C)C)s3)C(F)(F)C(F)(F)C2(F)F)cc1` [Chromophore S343, 2-(4-(tert-butyl)phenyl)-3-(2-(5,5″-di-tert-butyl-[2,2′:5′,2″-terthiophen]-3′-yl)-3,3,4,4,5,5-hexafluorocyclopent-1-en-1-yl)benzofuran], in data set [1], the “RC [O]” value worked out at 1.1 and the “RO [O]” value is 1.37. Also, in data set [2], the “YI (Yellowness Index)” value is 4.87 and the “Abs @ 400 nm, RO” value turned out to be 0.11. Moreover, in data set [3] (3 wt % in Rhodiasolv IRIS), the “Ketone (%)” value is 0.0%, the “Minus-2HF (%)” value was 3.1%, the “Minus-HF (%)” value amounted to 0.0% and the “Sulfone (%)” value worked out at 0.0%. For the same molecule, in data set [3] (3 wt % in Rhodiasolv IRIS), the “Chromophore Remaining (%)” value stood at 85.2%. For the same molecule, the “Ratio of chromophore remaining relative to S340” value in data set [3] (setting [4]) is given as 0.93. Also, the “Photostability (in words)” value in data set [3] is listed as “more rapid degradation compared to S340”.
